Target: T1, human SSTR4 (Homo sapiens, UniProt P31391)
T1 construct: expressed in transfected cells; host or cells: CHO-K1
Experiment: hSSTR4 cAMP assay (cAMP accumulation, LANCE Ultra cAMP kit, CHO-K1 human SSTR4 Gi cell line)
Type: cell-based
Conditions: functional agonism, forskolin 10 μM stimulated CHO-K1 human SSTR4 Gi cells, 30 min at 25° C., at least duplicate, averaged; read-out: hSSTR4 EC50
Procedure: cAMP accumulation assay using a CHO-K1 human SSTR4 Gi cell line.
Quantification of intracellular cAMP was performed using the LANCE Ultra cAMP assay kit from Revvity according to the manufacturer's instructions. CHO-K1 human SSTR4 Gi cell were either seeded in a density of 3K cells per well into a 384 well plate and incubated at 37° C. and 5% CO2 for 18-20 h or a stock of frozen cells were defrosted and seeded in a density of 5K cells per well without any further cultivation directly prior to the assay in a total volume of 5 μL in stimulation buffer. For pre-cultured cells, medium was replaced with 5 μL stimulation buffer before the assay. Cells were then stimulated with forskolin (final concentration 10 μM) and test compound (SSTR4 agonist) in increasing concentrations in duplicates for 30 min at 25° C. After stimulation, cells were lysed by addition of 10 μL of detection buffer (provided with the kit) and cell lysates were further diluted to ensure final cAMP concentrations fitted well into the dynamic range of the test kit. 10 μL of the diluted lysates were then added to respective wells of an OptiPlate-384 microplate. Thereafter, 5 μL of 4× Eu-cAMP tracer working solution was added, followed by addition of 5 μL of ULight-anti-cAMP working solution. The plate was then incubated for 1 h at 25° C. before reading on a TR-FRET microplate instrument. Data were normalized to cAMP high (forskolin only) and low control (forskolin+100 nM SST14) before fitting to a 4-Paramter logistic function.
All data was generated according to the cAMP assay conditions described above in at least duplicate and results are averaged and rounded to two significant figures.

T1 sequence (P31391 whole entry): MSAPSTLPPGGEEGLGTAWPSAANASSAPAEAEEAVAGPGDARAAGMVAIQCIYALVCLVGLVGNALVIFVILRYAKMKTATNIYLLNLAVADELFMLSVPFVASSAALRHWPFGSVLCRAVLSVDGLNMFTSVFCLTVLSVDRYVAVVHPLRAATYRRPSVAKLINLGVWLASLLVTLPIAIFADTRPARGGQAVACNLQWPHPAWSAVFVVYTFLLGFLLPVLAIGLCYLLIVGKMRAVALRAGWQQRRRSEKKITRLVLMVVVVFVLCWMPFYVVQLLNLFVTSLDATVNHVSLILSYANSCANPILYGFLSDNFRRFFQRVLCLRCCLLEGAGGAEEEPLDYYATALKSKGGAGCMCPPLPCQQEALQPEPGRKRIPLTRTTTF

SMILES	EC50
Cc1cccn2c(C(C)(C)NC(=O)[C@@H]3CN(C)CCN3CC(F)(F)F)ncc12 [SC-045, (S)-4-methyl-N-(2-(8-methylimidazo[1,5-a]pyridin-3-yl)propan-2-yl)-1-(2,2,2-trifluoroethyl)piperazine-2-carboxamide]	1.4 nM
Cc1cccn2c(C(C)(C)NC(=O)[C@@H]3CN(C)CCN3C)ncc12 [SC-046, (S)-1,4-dimethyl-N-(2-(8-methylimidazo[1,5-a]pyridin-3-yl)propan-2-yl)piperazine-2-carboxamide]	2.8 nM
Cc1cccn2c(C(C)(C)NC(=O)[C@@H]3CN(C)CCN3CC3CCOCC3)ncc12 [SC-047, (S)-4-methyl-N-(2-(8-methylimidazo[1,5-a]pyridin-3-yl)propan-2-yl)-1-((tetrahydro-2H-pyran-4-yl)methyl)piperazine-2-carboxamide]	0.45 nM
Cc1cccn2c(C(C)(C)NC(=O)[C@@H]3CN(C)CCN3CC3COC3)ncc12 [SC-048, (S)-4-methyl-N-(2-(8-methylimidazo[1,5-a]pyridin-3-yl)propan-2-yl)-1-(oxetan-3-ylmethyl)piperazine-2-carboxamide]	9.2 nM
Cc1cccn2c(C(C)(C)NC(=O)[C@@H]3CN(CC(F)(F)F)CCN3)ncc12 [SC-049, (S)-N-(2-(8-methylimidazo[1,5-a]pyridin-3-yl)propan-2-yl)-4-(2,2,2-trifluoroethyl)piperazine-2-carboxamide]	3300 nM
Cc1cccn2c(C(C)(C)NC(=O)[C@@H]3CN(CC(F)F)CCN3)ncc12 [SC-050, (S)-4-(2,2-difluoroethyl)-N-(2-(8-methylimidazo[1,5-a]pyridin-3-yl)propan-2-yl)piperazine-2-carboxamide]	8200 nM
COCCN1CCN[C@H](C(=O)NC(C)(C)c2ncc3c(C)cccn23)C1 [SC-051, (S)-4-(2-methoxyethyl)-N-(2-(8-methylimidazo[1,5-a]pyridin-3-yl)propan-2-yl)piperazine-2-carboxamide]	990 nM
Cc1cccn2c(C(C)(C)NC(=O)[C@@H]3CN(C(C)C)CCN3)ncc12 [SC-052, (S)-4-isopropyl-N-(2-(8-methylimidazo[1,5-a]pyridin-3-yl)propan-2-yl)piperazine-2-carboxamide]	22 nM
Cc1cccn2c(C(C)(C)NC(=O)[C@@H]3CN(C4CCC4)CCN3)ncc12 [SC-053, (S)-4-cyclobutyl-N-(2-(8-methylimidazo[1,5-a]pyridin-3-yl)propan-2-yl)piperazine-2-carboxamide]	520 nM
CCN1CCN[C@H](C(=O)NC(C)(C)c2ncc3c(C)cccn23)C1 [SC-054, (S)-4-ethyl-N-(2-(8-methylimidazo[1,5-a]pyridin-3-yl)propan-2-yl)piperazine-2-carboxamide]	17 nM
Cc1cccn2c(C(C)(C)NC(=O)[C@@H]3CN(C4CCC(F)(F)CC4)CCN3)ncc12 [SC-055, (S)-4-(4,4-difluorocyclohexyl)-N-(2-(8-methylimidazo[1,5-a]pyridin-3-yl)propan-2-yl)piperazine-2-carboxamide]	8400 nM
Cc1cccn2c(C(C)(C)NC(=O)[C@@H]3CN(C4CCOCC4)CCN3)ncc12 [SC-056, (S)-N-(2-(8-methylimidazo[1,5-a]pyridin-3-yl)propan-2-yl)-4-(tetrahydro-2H-pyran-4-yl)piperazine-2-carboxamide]	3000 nM
Cc1cccn2c(C(C)(C)NC(=O)[C@@H]3CN(CC4CCOCC4)CCN3)ncc12 [SC-057, (S)-N-(2-(8-methylimidazo[1,5-a]pyridin-3-yl)propan-2-yl)-4-((tetrahydro-2H-pyran-4-yl)methyl)piperazine-2-carboxamide]	20 nM
Cc1cccn2c(C(C)(C)NC(=O)[C@@H]3CN(Cc4ccccc4)CCN3)ncc12 [SC-058, (S)-4-benzyl-N-(2-(8-methylimidazo[1,5-a]pyridin-3-yl)propan-2-yl)piperazine-2-carboxamide]	1700 nM
Cc1cccn2c(C(C)(C)NC(=O)[C@@H]3CN(Cc4ccncc4)CCN3)ncc12 [SC-059, (S)-N-(2-(8-methylimidazo[1,5-a]pyridin-3-yl)propan-2-yl)-4-(pyridin-4-ylmethyl)piperazine-2-carboxamide]	130 nM
Cc1cccn2c(C(C)(C)NC(=O)[C@@H]3CN(Cc4ccccn4)CCN3)ncc12 [SC-060, (S)-N-(2-(8-methylimidazo[1,5-a]pyridin-3-yl)propan-2-yl)-4-(pyridin-2-ylmethyl)piperazine-2-carboxamide]	1500 nM

SMILES	EC50
Cc1cccn2c(C(C)(C)NC(=O)[C@@H]3CN(Cc4cccnc4)CCN3)ncc12 [SC-061, (S)-N-(2-(8-methylimidazo[1,5-a]pyridin-3-yl)propan-2-yl)-4-(pyridin-3-ylmethyl)piperazine-2-carboxamide]	1700 nM
Cc1cccn2c(C(C)(C)NC(=O)[C@@H]3CN(Cc4cnco4)CCN3)ncc12 [SC-062, (S)-N-(2-(8-methylimidazo[1,5-a]pyridin-3-yl)propan-2-yl)-4-(oxazol-5-ylmethyl)piperazine-2-carboxamide]	220 nM
Cc1cccn2c(C(C)(C)NC(=O)[C@@H]3CN(Cc4cocn4)CCN3)ncc12 [SC-063, (S)-N-(2-(8-methylimidazo[1,5-a]pyridin-3-yl)propan-2-yl)-4-(oxazol-4-ylmethyl)piperazine-2-carboxamide]	930 nM
Cc1cccn2c(C(C)(C)NC(=O)[C@@H]3CN(Cc4cc(C(F)(F)F)nn4C)CCN3)ncc12 [SC-064, (S)-4-((1-methyl-3-(trifluoromethyl)-1H-pyrazol-5-yl)methyl)-N-(2-(8-methylimidazo[1,5-a]pyridin-3-yl)propan-2-yl)piperazine-2-carboxamide]	13000 nM
Cc1cccn2c(C(C)(C)NC(=O)[C@@H]3CN(Cc4ncco4)CCN3)ncc12 [SC-065, (S)-N-(2-(8-methylimidazo[1,5-a]pyridin-3-yl)propan-2-yl)-4-(oxazol-2-ylmethyl)piperazine-2-carboxamide]	1300 nM
Cc1cccn2c(C(C)(C)NC(=O)[C@@H]3CN(Cc4ccn(C)n4)CCN3)ncc12 [SC-066, (S)-4-((1-methyl-1H-pyrazol-3-yl)methyl)-N-(2-(8-methylimidazo[1,5-a]pyridin-3-yl)propan-2-yl)piperazine-2-carboxamide]	1600 nM
Cc1cccn2c(C(C)(C)NC(=O)[C@@H]3CN(CC4CCC(F)(F)CC4)CCN3)ncc12 [SC-067, (S)-4-((4,4-difluorocyclohexyl)methyl)-N-(2-(8-methylimidazo[1,5-a]pyridin-3-yl)propan-2-yl)piperazine-2-carboxamide]	2400 nM
Cc1cccn2c(C(C)(C)NC(=O)[C@@H]3CN(CC4CCC4)CCN3)ncc12 [SC-068, (S)-4-(cyclobutylmethyl)-N-(2-(8-methylimidazo[1,5-a]pyridin-3-yl)propan-2-yl)piperazine-2-carboxamide]	590 nM
Cc1cccn2c(C(C)(C)NC(=O)[C@@H]3CN(CC(C)C)CCN3)ncc12 [SC-069, (S)-4-isobutyl-N-(2-(8-methylimidazo[1,5-a]pyridin-3-yl)propan-2-yl)piperazine-2-carboxamide]	300 nM
CCCN1CCN[C@H](C(=O)NC(C)(C)c2ncc3c(C)cccn23)C1 [SC-070, (S)-N-(2-(8-methylimidazo[1,5-a]pyridin-3-yl)propan-2-yl)-4-propylpiperazine-2-carboxamide]	82 nM
Cc1cccn2c(C(C)(C)NC(=O)[C@@H]3CN(Cc4cnn(C)c4)CCN3)ncc12 [SC-071, (S)-4-((1-methyl-1H-pyrazol-4-yl)methyl)-N-(2-(8-methylimidazo[1,5-a]pyridin-3-yl)propan-2-yl)piperazine-2-carboxamide]	540 nM
Cc1cccn2c(C(C)(C)NC(=O)[C@@H]3CN(Cc4ccnn4C)CCN3)ncc12 [SC-072, (S)-4-((1-methyl-1H-pyrazol-5-yl)methyl)-N-(2-(8-methylimidazo[1,5-a]pyridin-3-yl)propan-2-yl)piperazine-2-carboxamide]	1200 nM
Cc1cccn2c(C(C)(C)NC(=O)[C@@H]3CN(Cc4ccn(C(C)C)n4)CCN3)ncc12 [SC-073, (S)-4-((1-isopropyl-1H-pyrazol-3-yl)methyl)-N-(2-(8-methylimidazo[1,5-a]pyridin-3-yl)propan-2-yl)piperazine-2-carboxamide]	4800 nM
Cc1cccn2c(C(C)(C)NC(=O)[C@@H]3CN(Cc4cnn(C(C)C)c4)CCN3)ncc12 [SC-074, (S)-4-((1-isopropyl-1H-pyrazol-4-yl)methyl)-N-(2-(8-methylimidazo[1,5-a]pyridin-3-yl)propan-2-yl)piperazine-2-carboxamide]	2600 nM
Cc1cccn2c(C(C)(C)NC(=O)[C@@H]3CN(C4COC4)CCN3)ncc12 [SC-075, (S)-N-(2-(8-methylimidazo[1,5-a]pyridin-3-yl)propan-2-yl)-4-(oxetan-3-yl)piperazine-2-carboxamide]	620 nM
Cc1cccn2c(C(C)(C)NC(=O)[C@@H]3CN(CC4COC4)CCN3)ncc12 [SC-076, (S)-N-(2-(8-methylimidazo[1,5-a]pyridin-3-yl)propan-2-yl)-4-(oxetan-3-ylmethyl)piperazine-2-carboxamide]	620 nM

— patent US20250368625A1, “PIPERAZINES” (Grünenthal GmbH, priority 2024, published 2025)
